# Columns and labels:
# Format in all cases: in vivo
# [1] = test system: Amaranthus palmeri (AMAPA); assay: Post-emergence test, herbicidal damage; settings: sprayed after 8 days cultivation, 1000 g/ha, evaluated after 13 days
# Procedure: (§1) Seeds of a variety of test species are sown in standard soil in pots (Amaranthus retoflexus (AMARE), Echinochloa crus-galli (ECHCG), Amaranthus palmeri (AMAPA), Setaria faberi (SETFA), Zea mays (ZEAMX), Ipomoea hederacea (IPOHE)). After 8 days cultivation under controlled conditions in a glasshouse (at 24° C./16° C., day/night; 14 hours light; 65% humidity), the plants are sprayed with an aqueous spray solution derived from the formulation of the technical active ingredient in acetone/water (50:50) solution containing 0.5% Tween 20 (polyoxyethylene sorbitan monolaurate, CAS RN 9005-64-5). Compounds are applied at 1000 g/ha unless otherwise stated. The test plants are then grown in a glasshouse under controlled conditions in a glasshouse (at 24° C./16° C., day/night; 14 hours light; 65% humidity) and watered twice daily. After 13 days the test is evaluated for the percentage damage caused to the plant. The biological activities are shown in the following table on a five-point scale (5=81-100%; 4=61-80%; 3=41-60%; 2=21-40%; 1=10-20%; 0=0%; -=not tested).
# [2] = test system: Amaranthus retoflexus (AMARE); assay: Post-emergence test, herbicidal damage; settings: sprayed after 8 days cultivation, 1000 g/ha, evaluated after 13 days
# Procedure: as §1
# [3] = test system: Echinochloa crus-galli (ECHCG); assay: Post-emergence test, herbicidal damage; settings: sprayed after 8 days cultivation, 1000 g/ha, evaluated after 13 days
# Procedure: as §1
# [4] = test system: Ipomoea hederacea (IPOHE); assay: Post-emergence test, herbicidal damage; settings: sprayed after 8 days cultivation, 1000 g/ha, evaluated after 13 days
# Procedure: as §1
# Setaria faberi (SETFA) = assay: Post-emergence test, herbicidal damage; settings: sprayed after 8 days cultivation, 1000 g/ha, evaluated after 13 days
# Procedure: as §1
# Zea mays (ZEAMX) [5] = assay: Post-emergence test, herbicidal damage; settings: sprayed after 8 days cultivation, 1000 g/ha, evaluated after 13 days
# Procedure: as §1
# [6] = test system: Amaranthus retoflexus (AMARE); assay: Pre-emergence test, herbicidal damage; settings: 1000 g/ha, evaluated after 13 days
# [7] = test system: Echinochloa crus-galli (ECHCG); assay: Pre-emergence test, herbicidal damage; settings: 1000 g/ha, evaluated after 13 days
# [8] = test system: Amaranthus palmeri (AMAPA); assay: Pre-emergence test, herbicidal damage; settings: 1000 g/ha, evaluated after 13 days
# Zea mays (ZEAMX) [9] = assay: Pre-emergence test, herbicidal damage; settings: 1000 g/ha, evaluated after 13 days
# [10] = test system: Ipomoea hederacea (IPOHE); assay: Pre-emergence test, herbicidal damage; settings: 1000 g/ha, evaluated after 13 days
smiles,measurement,setting,value
"CCOC(=O)c1nn(-c2ccnc(Cl)c2)c2cccc(Br)c2c1=O [Compound 3, ethyl 5-bromo-1-(2-chloro-4-pyridyl)-4-oxo-cinnoline-3-carboxylate]","percentage damage caused to the plant, AMAPA",[1],1 (1=10-20%)
same,"percentage damage caused to the plant, AMARE",[2],2 (2=21-40%)
same,"percentage damage caused to the plant, ECHCG",[3],2 (2=21-40%)
same,"percentage damage caused to the plant, IPOHE",[4],0 (0=0%)
same,"percentage damage caused to the plant, SETFA",Setaria faberi (SETFA),0 (0=0%)
same,"percentage damage caused to the plant, ZEAMX",Zea mays (ZEAMX) [5],0 (0=0%)
"CCOC(=O)c1nn(-c2ccc(OC)nc2)c2cccc(Br)c2c1=O [Compound 4, ethyl 5-bromo-1-(6-methoxy-3-pyridyl)-4-oxo-cinnoline-3-carboxylate]","percentage damage caused to the plant, AMAPA",[1],1 (1=10-20%)
same,"percentage damage caused to the plant, AMARE",[2],2 (2=21-40%)
same,"percentage damage caused to the plant, ECHCG",[3],0 (0=0%)
same,"percentage damage caused to the plant, IPOHE",[4],0 (0=0%)
same,"percentage damage caused to the plant, SETFA",Setaria faberi (SETFA),0 (0=0%)
same,"percentage damage caused to the plant, ZEAMX",Zea mays (ZEAMX) [5],0 (0=0%)
"CCOC(=O)c1nn(-c2cncc(Cl)c2)c2cccc(Br)c2c1=O [Compound 5, ethyl 5-bromo-1-(5-chloro-3-pyridyl)-4-oxo-cinnoline-3-carboxylate]","percentage damage caused to the plant, AMAPA",[1],1 (1=10-20%)
same,"percentage damage caused to the plant, AMARE",[2],1 (1=10-20%)
same,"percentage damage caused to the plant, ECHCG",[3],2 (2=21-40%)
same,"percentage damage caused to the plant, IPOHE",[4],1 (1=10-20%)
same,"percentage damage caused to the plant, SETFA",Setaria faberi (SETFA),2 (2=21-40%)
same,"percentage damage caused to the plant, ZEAMX",Zea mays (ZEAMX) [5],1 (1=10-20%)
"CCOC(=O)c1nn(-c2cncnc2)c2cccc(Br)c2c1=O [Compound 8, ethyl 5-bromo-4-oxo-1-pyrimidin-5-yl-cinnoline-3-carboxylate]","percentage damage caused to the plant, AMAPA",[1],0 (0=0%)
same,"percentage damage caused to the plant, AMARE",[2],0 (0=0%)
same,"percentage damage caused to the plant, ECHCG",[3],0 (0=0%)
same,"percentage damage caused to the plant, IPOHE",[4],0 (0=0%)
same,"percentage damage caused to the plant, SETFA",Setaria faberi (SETFA),0 (0=0%)
same,"percentage damage caused to the plant, ZEAMX",Zea mays (ZEAMX) [5],0 (0=0%)
"CCOC(=O)c1nn(-c2ccnc(OC)c2)c2cccc(Br)c2c1=O [Compound 9, ethyl 5-bromo-1-(2-methoxy-4-pyridyl)-4-oxo-cinnoline-3-carboxylate]","percentage damage caused to the plant, AMAPA",[1],1 (1=10-20%)
same,"percentage damage caused to the plant, AMARE",[2],1 (1=10-20%)
same,"percentage damage caused to the plant, ECHCG",[3],1 (1=10-20%)
same,"percentage damage caused to the plant, IPOHE",[4],0 (0=0%)
same,"percentage damage caused to the plant, SETFA",Setaria faberi (SETFA),0 (0=0%)
same,"percentage damage caused to the plant, ZEAMX",Zea mays (ZEAMX) [5],1 (1=10-20%)
"CCOC(=O)c1nn(-c2ccc(F)nc2)c2cccc(C#N)c2c1=O [Compound 11, ethyl 5-cyano-1-(6-fluoro-3-pyridyl)-4-oxo-cinnoline-3-carboxylate]","percentage damage caused to the plant, AMAPA",[1],0 (0=0%)
same,"percentage damage caused to the plant, AMARE",[2],0 (0=0%)
same,"percentage damage caused to the plant, ECHCG",[3],2 (2=21-40%)
same,"percentage damage caused to the plant, IPOHE",[4],0 (0=0%)
same,"percentage damage caused to the plant, SETFA",Setaria faberi (SETFA),0 (0=0%)
same,"percentage damage caused to the plant, ZEAMX",Zea mays (ZEAMX) [5],1 (1=10-20%)
"CCOC(=O)c1nn(-c2cnc(OC)c(F)c2)c2cccc(Br)c2c1=O [Compound 22, ethyl 5-bromo-1-(5-fluoro-6-methoxy-3-pyridyl)-4-oxo-cinnoline-3-carbox-ylate]","percentage damage caused to the plant, AMAPA",[1],0 (0=0%)
same,"percentage damage caused to the plant, AMARE",[2],0 (0=0%)
same,"percentage damage caused to the plant, ECHCG",[3],0 (0=0%)
same,"percentage damage caused to the plant, IPOHE",[4],0 (0=0%)
same,"percentage damage caused to the plant, SETFA",Setaria faberi (SETFA),0 (0=0%)
same,"percentage damage caused to the plant, ZEAMX",Zea mays (ZEAMX) [5],0 (0=0%)
"CCOC(=O)c1nn(-c2cnc3c(c2)OC(F)(F)O3)c2cccc(Br)c2c1=O [Compound 24, ethyl 5-bromo-1-(2,2-difluoro-[1,3]dioxolo[4,5-b]pyridin-6-yl)-4-oxo-cinnoline-3-carboxylate]","percentage damage caused to the plant, AMAPA",[1],0 (0=0%)
same,"percentage damage caused to the plant, AMARE",[2],0 (0=0%)
same,"percentage damage caused to the plant, ECHCG",[3],2 (2=21-40%)
same,"percentage damage caused to the plant, IPOHE",[4],0 (0=0%)
same,"percentage damage caused to the plant, SETFA",Setaria faberi (SETFA),2 (2=21-40%)
same,"percentage damage caused to the plant, ZEAMX",Zea mays (ZEAMX) [5],1 (1=10-20%)
"CCOC(=O)c1nn(-c2cnc(Cl)c(C)c2)c2cccc(Br)c2c1=O [Compound 26, ethyl 5-bromo-1-(6-chloro-5-methyl-3-pyridyl)-4-oxo-cinnoline-3-carboxylate]","percentage damage caused to the plant, AMARE",[6],1 (1=10-20%)
same,"percentage damage caused to the plant, ECHCG",[7],0 (0=0%)
same,"percentage damage caused to the plant, AMAPA",[8],1 (1=10-20%)
same,"percentage damage caused to the plant, ZEAMX",Zea mays (ZEAMX) [9],0 (0=0%)
same,"percentage damage caused to the plant, IPOHE",[10],0 (0=0%)
same,"percentage damage caused to the plant, AMAPA",[1],1 (1=10-20%)
same,"percentage damage caused to the plant, AMARE",[2],2 (2=21-40%)
same,"percentage damage caused to the plant, ECHCG",[3],0 (0=0%)
same,"percentage damage caused to the plant, IPOHE",[4],2 (2=21-40%)
same,"percentage damage caused to the plant, SETFA",Setaria faberi (SETFA),1 (1=10-20%)
"CCOC(=O)c1nn(-c2cnc(OC)c(C)c2)c2cccc(Br)c2c1=O [Compound 29, ethyl 5-bromo-1-(6-methoxy-5-methyl-3-pyridyl)-4-oxo-cinnoline-3-carboxylate]","percentage damage caused to the plant, AMAPA",[1],1 (1=10-20%)
same,"percentage damage caused to the plant, AMARE",[2],2 (2=21-40%)
same,"percentage damage caused to the plant, ECHCG",[3],1 (1=10-20%)
same,"percentage damage caused to the plant, IPOHE",[4],2 (2=21-40%)
same,"percentage damage caused to the plant, SETFA",Setaria faberi (SETFA),0 (0=0%)
"CCOC(=O)c1nn(-c2ccc(C(F)F)nc2)c2cccc(Br)c2c1=O [Compound 30, ethyl 5-bromo-1-[6-(difluoromethyl)-3-pyridyl]-4-oxo-cinnoline-3-carboxylate]","percentage damage caused to the plant, AMARE",[6],0 (0=0%)
same,"percentage damage caused to the plant, ECHCG",[7],2 (2=21-40%)
same,"percentage damage caused to the plant, AMAPA",[8],0 (0=0%)
same,"percentage damage caused to the plant, ZEAMX",Zea mays (ZEAMX) [9],0 (0=0%)
same,"percentage damage caused to the plant, IPOHE",[10],0 (0=0%)
same,"percentage damage caused to the plant, AMAPA",[1],1 (1=10-20%)
same,"percentage damage caused to the plant, AMARE",[2],1 (1=10-20%)
same,"percentage damage caused to the plant, ECHCG",[3],4 (4=61-80%)
same,"percentage damage caused to the plant, IPOHE",[4],2 (2=21-40%)
same,"percentage damage caused to the plant, SETFA",Setaria faberi (SETFA),0 (0=0%)
"CCOC(=O)c1nn(-c2ncc(Cl)cc2C#N)c2cccc(Br)c2c1=O [Compound 33, ethyl 5-bromo-1-(5-chloro-3-cyano-2-pyridyl)-4-oxo-cinnoline-3-carboxylate]","percentage damage caused to the plant, AMARE",[2],0 (0=0%)
same,"percentage damage caused to the plant, ECHCG",[3],1 (1=10-20%)
same,"percentage damage caused to the plant, IPOHE",[4],1 (1=10-20%)
same,"percentage damage caused to the plant, SETFA",Setaria faberi (SETFA),1 (1=10-20%)
same,"percentage damage caused to the plant, ZEAMX",Zea mays (ZEAMX) [5],0 (0=0%)
"CCOC(=O)c1nn(-c2ccc(OC(F)F)nc2)c2cccc(C#N)c2c1=O [Compound 35, ethyl 5-cyano-1-[6-(difluoromethoxy)-3-pyridyl]-4-oxo-cinnoline-3-carboxylate]","percentage damage caused to the plant, AMAPA",[1],1 (1=10-20%)
same,"percentage damage caused to the plant, AMARE",[2],1 (1=10-20%)
same,"percentage damage caused to the plant, ECHCG",[3],0 (0=0%)
same,"percentage damage caused to the plant, IPOHE",[4],1 (1=10-20%)
same,"percentage damage caused to the plant, SETFA",Setaria faberi (SETFA),0 (0=0%)
"CCOC(=O)c1nn(-c2ccnc(OC(F)F)c2)c2cccc(Br)c2c1=O [Compound 38, ethyl 5-bromo-1-[2-(difluoromethoxy)-4-pyridyl]-4-oxo-cinnoline-3-carboxylate]","percentage damage caused to the plant, AMAPA",[1],1 (1=10-20%)
same,"percentage damage caused to the plant, AMARE",[2],2 (2=21-40%)
same,"percentage damage caused to the plant, ECHCG",[3],0 (0=0%)
same,"percentage damage caused to the plant, IPOHE",[4],2 (2=21-40%)
same,"percentage damage caused to the plant, SETFA",Setaria faberi (SETFA),1 (1=10-20%)
